# According to patent US7893083B2, “Method of treating genital herpes” (priority 2003, dated 2011):
# Legend:
# viral rhinitis [1] = system: viral rhinitis
# Text: In each of the tests, an imiquimod salve was used. The formulation was that commonly used to treat warts and sold under the brand name Aldara™. The salve was applied to each naris of the test subject by use of a common cotton swab. Either a 4 mm^3 dab of salve or ½ pack of 5% Aldara™ was placed on the swab head. The swab head was inserted into a naris. The swab was moved around inside the naris to distribute the salve over the mucosal membrane of the naris. Immediately, after application of the Aldara™ to the subject's first naris, a swab was used to apply the Aldara™ to the subject's second naris. Immediately after application to each naris, the salve was massaged into the mucosal membrane of each naris.
# A test sample of six patients was treated for viral rhinitis using imiquimod (5% topical cream Aldara™, manufactured by 3M Corporation, St. Paul, Minn.). The patients were diagnosed with viral rhinitis due to initial symptoms such as congested nasal passages (rhinitis), nasal drip or rhinorrhea, and sneezing. Contents from ½ packet of a standard imiquimod formulation such as, for example, Aldara™ were applied with a cotton swab into both nares by massaging gently but thoroughly. Approximately the contents from ½ packet of 5% Aldara™ was applied thoroughly along the inside surface of both nares. Initial application of Aldara™ to all the six patients occurred within 24 hours after the appearance of first symptoms resembling viral rhinitis, in order to maximize the efficiency of imiquimod in stimulating the immune system when the viral load is presumably smaller. The procedure was repeated every 12 hours for up to 48 hours. The imiquimod packets were refrigerated after opening, and the remaining contents were used for subsequent applications.
# The patients were monitored for changes in the viral rhinitis symptoms.
# viral rhinitis [2] = experiment: Viral rhinitis test subjects, delayed or once-daily Aldara in each nostril (Example 2); type: in vivo, human; details: applied more than 2 days after the onset of the cold symptoms
# Experimental: The swab head was inserted into a naris.
# Infected Test Subject #1 developed a sore throat with tingling in larynx, pharynx and uvula. 12 hours later, Subject 1 also developed congestion of the nose. One day later, the subject's initial symptoms intensified, and the subject further developed systemic symptoms such as malaise and headache. More than twenty four hours after the initial viral rhinitis symptoms appeared, Aldara™ was applied in each nostril with a Q-tip swab.
# A 4 mm^3 dab of salve was placed on the swab head. The swab head was inserted into a naris. […] The subject was also treated with 2 teaspoons of standard cough suppressant guaifenesin/dextromethorphan (Wal-Tussin). The next day, malaise and headache were more pronounced and Aldara™ was reapplied with Q-tip to each nostril as described above. Also, 2 teaspoons of guaifenesin/dextromethorphan was administered.
# Infected Test Subject #2 developed common cold with rhinorrhea and nose congestion. Aldara™ was applied once to each nostril every day for 3 days.
# HSV-2 [3] = experiment: Remission interval between genital herpes outbreaks after intranasal Aldara regimens (Example 3); type: in vivo, human; details: after 2 to 4 regimens
# Experimental: The patients were diagnosed with HSV-2 due to typical outbreak symptoms such as lesions. […] Thus, the contents were applied thoroughly along the inside surface of both nares. Initial application of Aldara™ to all the four patients occurred within 12 hours after the appearance of first symptoms resembling an outbreak of genital herpes. The application procedure was repeated every 12 hours up to 48 hours so that a total of four applications was administered to each patient.
# Prior to treatment with Aldara™, the four patients were having herpes outbreaks at fairly regular intervals. Patients 1, 2 and 3 were experiencing outbreaks every 2 to 3 months and Patient 4 was having outbreaks once a month. Each of the four patients then began treatment by undergoing the 48 hour Aldara™ regimen detailed above each time he or she experienced an outbreak. After undergoing 2 to 4 regimens, each patient experienced a prolonged period of remission before the next outbreak.
# IFN-a = IFN-a ELISA of nasal secretions after nasal application of imiquimod in macaques; type: in vivo, Macaca mulatta
# Text: (§1) The assay was limited to examining nasal secretions following nasal application (both nares) of imiquimod, because it is believed that this is the entry site where an immune response will be first observed. The assay evaluated the appearance of […] IFN-α and TNF-a in Macaca mulatta macaques and compared it with a control group treated with a base cream (without imiquimod) or simply anesthetized for the same time interval as the treated group.
# (§2) The significance of the data is two-fold. First, intranasal administration of imiquimod cream (5%) produced enough IFN-a in a short period of time, so the cream can be applied daily in order to have 5-6 h of good efficacy. Thus, for example, one can begin applying the cream prior to encountering a known viral area such as an airplane. However, the cream has known cytotoxic effects (mediated through the cytokine production), especially if applied for weeks, so extended application would not be recommended. In the assay, TNF-a remained high for at least 6 h. In the treated group of macaques, the cream was washed away with warm water after the experiments. […] The cream needs to be applied to induce maximum concentration of IFN-a, but it may be removed when TNF-a continues to be elevated (after 6 h).
# (§3) The control group (n=3) and the treated group (n=5) were sedated with glycopyrolate 0.01 mg/kg+acetaminophen 0.2 mg/kg and anesthetized with zolazepam (Telazol) 10 mg/kg intramuscular. […] Physical examination after each sample and at 6 h, 12 h, and 24 h post anesthesia consisted of examining each macaque for fever, erythema, erosion, flaking, and lacrimation.
# (§4) IFN-a and TNF-a enzyme-linked immunoabsorbent assays (ELISA). Levels of IFN-a and TNF-a were measured using commercially available multispecies kit (PBL Biomedical Laboratories) (product #41105-1). The range of detection was 10-500 pg/ml (high sensitivity protocol).
# TNF-a = TNF-a ELISA of nasal secretions after nasal application of imiquimod in macaques; type: in vivo, Macaca mulatta
# Text: as §1, §2, §3, §4
# HSV-2 [4] = details: 235 human patients; topical application to herpes lesions; cited from earlier work
# TLR7 = target: T1, TLR7 (Homo sapiens, UniProt Q9NYK1); details: cited from earlier work
# T1 sequence (Q9NYK1 27-1049): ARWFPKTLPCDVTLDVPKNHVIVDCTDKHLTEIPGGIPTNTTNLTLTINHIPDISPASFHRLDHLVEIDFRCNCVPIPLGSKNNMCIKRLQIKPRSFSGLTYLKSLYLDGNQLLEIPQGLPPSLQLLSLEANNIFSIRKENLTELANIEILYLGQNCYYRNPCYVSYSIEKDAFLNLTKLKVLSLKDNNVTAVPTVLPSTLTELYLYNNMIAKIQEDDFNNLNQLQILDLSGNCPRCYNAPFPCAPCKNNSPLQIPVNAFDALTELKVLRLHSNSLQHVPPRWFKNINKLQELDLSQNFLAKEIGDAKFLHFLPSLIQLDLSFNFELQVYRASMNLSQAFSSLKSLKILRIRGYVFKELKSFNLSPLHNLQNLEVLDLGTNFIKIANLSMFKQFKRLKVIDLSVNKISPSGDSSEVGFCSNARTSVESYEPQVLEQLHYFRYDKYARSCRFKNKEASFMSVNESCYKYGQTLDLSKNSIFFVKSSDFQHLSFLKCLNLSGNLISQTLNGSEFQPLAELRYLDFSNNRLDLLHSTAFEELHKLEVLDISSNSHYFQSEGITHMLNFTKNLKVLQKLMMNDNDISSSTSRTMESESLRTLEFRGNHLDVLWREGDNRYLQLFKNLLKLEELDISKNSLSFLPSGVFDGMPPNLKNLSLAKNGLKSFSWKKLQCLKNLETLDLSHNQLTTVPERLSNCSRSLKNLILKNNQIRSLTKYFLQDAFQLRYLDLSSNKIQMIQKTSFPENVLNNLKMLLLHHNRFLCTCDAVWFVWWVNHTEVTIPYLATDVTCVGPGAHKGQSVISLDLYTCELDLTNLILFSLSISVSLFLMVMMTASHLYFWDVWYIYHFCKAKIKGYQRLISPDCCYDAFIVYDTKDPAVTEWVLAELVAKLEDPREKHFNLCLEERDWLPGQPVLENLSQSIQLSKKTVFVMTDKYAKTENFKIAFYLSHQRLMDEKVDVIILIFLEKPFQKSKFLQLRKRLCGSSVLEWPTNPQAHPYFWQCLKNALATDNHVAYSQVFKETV
# [5] = system: purified plasmacytoid dendritic cells; details: cited from earlier work
# IFN-a mRNA = IFN-a mRNA in postnasal swabs by quantitative competitive RT-PCR in macaques
# [6] = Physical examination of macaques for adverse or cytotoxic effects after nasal Aldara
# [7] = nasal secretions, p<0.0001 versus control group
smiles,measurement,setting,value
CC(C)Cn1cnc2c(N)nc3ccccc3c21 [imiquimod],Effect of accidental inhalation of imiquimod,viral rhinitis [1]; one patient inhaled imiquimod,severe flu-like symptoms that spontaneously subsided within 24 hours
same,Aggravation of ulcerative colitis during treatment,viral rhinitis [1]; one patient with ulcerative colitis,did not suffer any further aggravation
same,"Complete disappearance of symptoms (nasal congestion, sore throat, headache; malaise), time of treatment","viral rhinitis [1]; six patients, untreated viral rhinitis about a week or 10 days",≤ 48 h
same,Side effects reported by patients,viral rhinitis [1]; throughout the course of treatment,No untoward side effects
same,Effectiveness of the treatment with late application,viral rhinitis [2],decreased markedly
same,Post-Treatment Remission Interval (Approximate),"HSV-2 [3]; Patient 1, pre-treatment interval 2-3 months",~3.5 years
same,Post-Treatment Remission Interval (Approximate),"HSV-2 [3]; Patient 2, pre-treatment interval 2-3 months",~6 months
same,Post-Treatment Remission Interval (Approximate),"HSV-2 [3]; Patient 3, pre-treatment interval 2-3 months",~10 months
same,Post-Treatment Remission Interval (Approximate),"HSV-2 [3]; Patient 4, pre-treatment interval 1 month",~2 months
same,IFN-a level relative to basal level,IFN-a; 3 h post treatment,5 times basal level
same,IFN-a level,IFN-a; 4 h post treatment,near maximal level
same,IFN-a level,IFN-a; 6 h post treatment,near basal level
same,"IFN-a increase over time (ELISA, FIG. 6A)",IFN-a; [7],630 ng/mg protein
same,Time of rapid induction of IFN-a post treatment,IFN-a; single nasal application,1 to 5 h
same,TNF-a level relative to the controls,TNF-a; 6 h post nasal treatment,3 times
same,TNF-a level,TNF-a; 6 h post treatment,remaining high
same,"TNF-a increase over time (ELISA, FIG. 6B)",TNF-a; [7],540 ng/mg protein
same,Time of TNF-a peak,TNF-a; post treatment,4 h
same,"Outbreak recurrence times, imiquimod versus placebo",HSV-2 [4],no statistically significant difference
same,Activity at TLR7,TLR7,TLR7 agonists
same,IFN-a induction,[5],induce IFN-a
same,"IFN-a level in treated animals, mean","IFN-a mRNA; samples taken 3-5 h after application, p=0.004 versus controls",2.3 IFN-a/albumin mRNA×10^3
same,"IFN-a level in treated animals, range","IFN-a mRNA; samples taken 3-5 h after application, related to albumin mRNA",0.84-5.20 mRNA×10^3
same,Increase of IFN-a messenger RNA levels in nasal secretions compared with untreated macaques,IFN-a mRNA; single nasal application,2-5 fold
same,Adverse reactions to treatment in macaques,[6]; cream used during short period of time,No adverse reactions
same,Cytotoxic effects on examination,"[6]; examined at 6 h, 12 h, or 24 h, cream washed away after the experiments","No animal had cytotoxic effects when examined at 6 h, 12 h, or 24 h, except one animal, which had an episode of lacrimation for 12 h post treatment"
